ChEMBL document CHEMBL1201862, “PubChem BioAssay data set” (2004)
Activity calls are given as the source filed them.

How the values were obtained:
Cytochrome P450 2D6 = Cytochrome P450 2D6 (Homo sapiens, UniProt P10635);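 further: CYP2D6 member of a cytochrome P450 panel assay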
H4 = experiment: Luminescence Cell-Based Dose Response HTS to Identify Activators of 5'UTR Stem-Loop Driven Prion Protein mRNA Translation in H4 Neuroglioblastoma Cells. [Related pubchem assays: 1829 (Project Summary), 1814 (Primary HTS)]; type: functional; conditions: Homo sapiens
[1] = Luminescence Cell-Based Dose Response HTS to Identify Activators of Luciferase Translation or Activity in H4 […] Cells. [Related pubchem assays: 1829 (Project Summary), 1814 (Primary HTS)]; type: functional
[2] = biological target: T1, Corticotropin-releasing factor receptor 2/Corticotropin-releasing factor-binding protein (Homo sapiens, UniProt P24387+Q13324); experiment: activators of CRF receptor 2 with binding protein – uHTS hits, confirmation (AID 602473); type: functional; conditions: read-out: EC50_Mean
T1 sequence (Q13324 whole entry): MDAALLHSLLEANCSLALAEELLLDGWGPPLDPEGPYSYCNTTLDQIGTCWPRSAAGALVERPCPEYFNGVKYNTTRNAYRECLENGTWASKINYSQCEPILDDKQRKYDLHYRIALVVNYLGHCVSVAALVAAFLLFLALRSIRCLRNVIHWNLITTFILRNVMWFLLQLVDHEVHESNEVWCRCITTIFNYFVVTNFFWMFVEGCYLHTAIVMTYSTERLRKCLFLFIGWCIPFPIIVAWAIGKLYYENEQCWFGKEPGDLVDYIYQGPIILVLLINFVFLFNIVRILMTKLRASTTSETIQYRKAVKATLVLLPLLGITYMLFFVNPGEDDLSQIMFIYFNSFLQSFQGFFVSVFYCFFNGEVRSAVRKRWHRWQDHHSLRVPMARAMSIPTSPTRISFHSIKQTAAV
T1 sequence (P24387 whole entry): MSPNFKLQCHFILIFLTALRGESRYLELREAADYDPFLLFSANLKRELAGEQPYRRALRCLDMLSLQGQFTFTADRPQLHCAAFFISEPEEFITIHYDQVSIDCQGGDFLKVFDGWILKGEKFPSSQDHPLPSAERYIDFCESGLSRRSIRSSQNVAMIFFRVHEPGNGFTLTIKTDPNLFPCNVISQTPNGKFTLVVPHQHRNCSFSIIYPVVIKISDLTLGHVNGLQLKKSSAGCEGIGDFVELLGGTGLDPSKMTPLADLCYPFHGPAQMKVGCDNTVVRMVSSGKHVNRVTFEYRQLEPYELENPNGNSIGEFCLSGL

Cytochrome P450 3A4 = Cytochrome P450 3A4 (Homo sapiens, UniProt P08684);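 further: CYP3A4 tested as one member of a cytochrome P450 panel screen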
Sequence of Cytochrome P450 3A4 (P08684 whole entry): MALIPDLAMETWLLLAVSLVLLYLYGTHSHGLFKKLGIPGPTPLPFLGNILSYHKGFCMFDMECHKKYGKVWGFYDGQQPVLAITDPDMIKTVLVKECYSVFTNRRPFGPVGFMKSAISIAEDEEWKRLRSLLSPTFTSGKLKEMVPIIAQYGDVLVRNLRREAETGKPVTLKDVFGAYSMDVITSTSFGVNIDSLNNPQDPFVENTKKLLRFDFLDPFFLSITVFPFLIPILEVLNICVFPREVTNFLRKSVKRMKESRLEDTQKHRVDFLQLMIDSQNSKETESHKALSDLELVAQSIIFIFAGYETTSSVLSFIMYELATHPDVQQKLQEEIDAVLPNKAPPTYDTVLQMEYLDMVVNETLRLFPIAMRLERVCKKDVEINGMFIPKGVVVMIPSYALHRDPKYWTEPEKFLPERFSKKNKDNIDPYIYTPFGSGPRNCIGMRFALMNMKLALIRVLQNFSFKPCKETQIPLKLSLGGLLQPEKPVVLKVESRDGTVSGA

INS1 = experiment: INS-1E survival protection against cytokine death – cell-based, luminescence, retest, dose response (AID 449756); type: functional; conditions: Rattus norvegicus;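 further: cell death triggered by IL-1 beta plus TNF-alpha plus IFN-gamma mixture; protective hits raise ATP signal compared with cytokine alone wells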
Cytochrome P450 2C9 = Cytochrome P450 2C9 (Homo sapiens, UniProt P11712)
Sequence of Cytochrome P450 2C9 (P11712 whole entry): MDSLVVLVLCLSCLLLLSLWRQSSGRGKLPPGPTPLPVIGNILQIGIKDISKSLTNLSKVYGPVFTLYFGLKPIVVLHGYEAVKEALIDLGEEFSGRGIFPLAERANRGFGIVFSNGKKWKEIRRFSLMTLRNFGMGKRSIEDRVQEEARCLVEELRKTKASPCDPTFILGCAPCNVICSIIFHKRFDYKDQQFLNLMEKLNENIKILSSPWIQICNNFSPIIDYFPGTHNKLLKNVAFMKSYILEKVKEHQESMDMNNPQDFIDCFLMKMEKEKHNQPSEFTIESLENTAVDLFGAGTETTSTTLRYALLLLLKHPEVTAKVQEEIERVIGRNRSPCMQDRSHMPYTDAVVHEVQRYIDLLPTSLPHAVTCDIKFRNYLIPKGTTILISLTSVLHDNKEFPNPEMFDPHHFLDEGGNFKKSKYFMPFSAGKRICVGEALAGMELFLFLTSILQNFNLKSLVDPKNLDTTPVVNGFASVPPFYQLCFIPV

[3] = NIH3T3 cell viability loss – ATP luminescence, mouse fibroblasts, counter-screen, dose response (AID 2010); type: functional, cell-based;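 further: cells exposed to compound for about 90 hours before reading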
[4] = Trypanosoma cruzi growth suppression in host cells – NIH3T3 host cells, beta-gal luminescence, confirmation (AID 2044); type: functional, cell-based;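 further: intracellular parasites grown in NIH/3T3 mouse fibroblasts as host cells; luminescent beta-galactosidase reporter signal from transgenic T. cruzi replicating inside host cells; inhibitors lower the luminescence signal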
Cytochrome P450 2C19 = Cytochrome P450 2C19 (Homo sapiens, UniProt P33261); experiment: Cytochrome panel assay with activity outcomes. Panel member name: p450-cyp2c19 Compounds with AC50 equal or less than 10 uM are considered active; type: functional; conditions: read-out: AC50
Sequence of Cytochrome P450 2C19 (P33261 whole entry): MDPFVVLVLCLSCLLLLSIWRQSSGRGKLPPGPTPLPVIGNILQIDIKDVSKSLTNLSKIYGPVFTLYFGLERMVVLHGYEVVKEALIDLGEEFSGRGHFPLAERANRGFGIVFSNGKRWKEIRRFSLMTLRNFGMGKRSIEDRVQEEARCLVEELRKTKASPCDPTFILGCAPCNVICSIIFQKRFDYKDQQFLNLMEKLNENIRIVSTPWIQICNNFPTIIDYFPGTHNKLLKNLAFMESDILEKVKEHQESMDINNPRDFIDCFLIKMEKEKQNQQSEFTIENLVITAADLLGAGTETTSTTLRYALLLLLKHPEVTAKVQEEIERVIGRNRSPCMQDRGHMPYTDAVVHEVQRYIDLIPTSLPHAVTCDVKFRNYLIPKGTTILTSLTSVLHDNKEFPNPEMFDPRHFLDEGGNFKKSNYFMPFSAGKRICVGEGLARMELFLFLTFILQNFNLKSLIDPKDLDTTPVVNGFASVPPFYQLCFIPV

Cytochrome P450 1A2 = biological target: T2, Cytochrome P450 1A2 (Homo sapiens, UniProt P05177);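 further: PubChem cytochrome P450 panel assay, CYP1A2 panel member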
T2 sequence (P05177 whole entry): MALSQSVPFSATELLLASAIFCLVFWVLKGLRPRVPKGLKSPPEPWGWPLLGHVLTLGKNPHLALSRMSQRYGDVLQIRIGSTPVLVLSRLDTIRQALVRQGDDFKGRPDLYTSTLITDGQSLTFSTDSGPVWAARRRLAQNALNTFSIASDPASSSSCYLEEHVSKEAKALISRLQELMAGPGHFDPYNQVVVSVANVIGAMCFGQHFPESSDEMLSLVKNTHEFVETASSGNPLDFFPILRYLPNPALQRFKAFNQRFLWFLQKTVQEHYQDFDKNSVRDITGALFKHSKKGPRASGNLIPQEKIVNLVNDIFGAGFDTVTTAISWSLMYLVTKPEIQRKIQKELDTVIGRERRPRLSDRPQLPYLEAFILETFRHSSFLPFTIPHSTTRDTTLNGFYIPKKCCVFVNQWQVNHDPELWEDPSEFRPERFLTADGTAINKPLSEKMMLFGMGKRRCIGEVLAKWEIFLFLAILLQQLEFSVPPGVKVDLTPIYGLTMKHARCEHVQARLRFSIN

[5] = NIH-3T3 fibroblast cytotoxicity, dose response, cytotoxicity control, cell-based, fluorescence, Alamar Blue, secondary assay (AID 2327); type: functional;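 further: NIH-3T3 mouse fibroblasts cultured with fluconazole at 8 µg/mL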
[6] = Luminescence Cell-Based Dose Retest to Confirm Inhibitors of Cancer Stem Cells. [Related pubchem assays (depositor defined):AID2717, AID2721]; type: functional; conditions: Homo sapiens

Sequence of Cytochrome P450 2D6 (P10635 whole entry): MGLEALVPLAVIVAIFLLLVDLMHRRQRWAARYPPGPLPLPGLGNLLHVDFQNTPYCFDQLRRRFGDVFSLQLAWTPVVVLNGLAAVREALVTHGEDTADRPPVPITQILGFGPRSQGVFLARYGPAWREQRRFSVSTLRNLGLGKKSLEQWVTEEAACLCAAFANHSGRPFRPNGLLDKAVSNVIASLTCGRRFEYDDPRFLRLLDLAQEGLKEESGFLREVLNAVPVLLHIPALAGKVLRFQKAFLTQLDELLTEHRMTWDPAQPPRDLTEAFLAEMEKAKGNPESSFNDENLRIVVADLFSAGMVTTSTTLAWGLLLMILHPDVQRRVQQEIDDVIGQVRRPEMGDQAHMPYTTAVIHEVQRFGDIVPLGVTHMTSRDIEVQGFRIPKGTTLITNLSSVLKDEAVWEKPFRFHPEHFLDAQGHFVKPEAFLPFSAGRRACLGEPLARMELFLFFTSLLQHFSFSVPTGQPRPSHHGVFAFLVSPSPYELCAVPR

With `COc1ccc(C(=O)N2CCC3(CCCN(Cc4ccncc4)C3)CC2)cc1` the AC50 (Cytochrome P450 2D6) was 12.6 µM (inconclusive).

With `O=C(CSc1cn(Cc2ccccc2)c2ccccc12)Nc1nccs1` the EC50 (H4) was 5.48 µM (active) and the EC50 [1] was 0.244 µM (active).

For `O=C1CC[C@](CCc2nc3ccccc3[nH]2)(c2ccccc2)C(=O)N1`, the AC50 (Cytochrome P450 2D6) was 2.51 µM (inconclusive).

For `COCCCNC(=O)[C@H]1N2C(=O)c3ccccc3C2SC1(C)C` (stereo partly specified), the EC50 [2] was > 53 µM (inactive).

In the case of `FC(F)(F)c1ccccc1-c1nc(N2CCOCC2)c2ccccc2n1`, the AC50 (Cytochrome P450 3A4) is reported as 12.6 µM (inconclusive) and the AC50 (Cytochrome P450 2D6) is reported as 25.1 µM (inconclusive).

With `O=C(NCc1ccccc1)C1=C[C@H](c2csc3ccccc23)C[C@H](OCCCCO)O1` the AC50 (INS1) was 5.81 µM (active).

For `CC(C)N1CCN(c2ccncc2S(=O)(=O)N2CCCCC2)CC1`, the AC50 (Cytochrome P450 2D6) was 3.98 µM (inconclusive).

With `O=C(O)c1ccc2c(c1)C(=O)N(C(Cc1ccc(O)cc1)C(=O)O)C2=O` (stereo unspecified) the AC50 (Cytochrome P450 2D6) was 0.01 µM (inconclusive).

In the case of `Cc1ccnc(N(C(=O)Nc2ccccc2)C2=NCC(C)(C)S2)c1`, the EC50 (H4) is reported as > 120 µM (not active) and the EC50 [1] is reported as 0.709 µM (active).

In the case of `O=C(c1ccncc1)N1CCC2(CCN(Cc3ccncc3)CC2)CC1`, the AC50 (Cytochrome P450 3A4) is reported as 15.8 µM (inconclusive), the AC50 (Cytochrome P450 2C9) is reported as 20 µM (inconclusive) and the AC50 (Cytochrome P450 2D6) is reported as 25.1 µM (inconclusive).

In the case of `COc1ccc(C(=O)C/C(=C\C(=O)c2ccc(C)cc2)c2ccccc2)cc1`, the EC50 [3] is reported as > 60 µM (not active), the AC50 (INS1) is reported as 7 µM (active) and the EC50 [4] is reported as 1.93 µM (active).

For `CC(=O)N1CCC2(CC1)CCN(c1ccncc1)CC2`, the AC50 (Cytochrome P450 2C9) was 25.1 µM (inconclusive).

For `O=C(OCc1cccc(F)c1)c1ccc2c(c1)-c1ccccc1C2=O`, the AC50 (Cytochrome P450 2C9) was 10 µM (inconclusive) and the AC50 (Cytochrome P450 2D6) was 0.355 µM (inconclusive).

With `CC(=O)Nc1ccc(Sc2ncccc2C(=O)Nc2ccc(F)cc2)cn1` the AC50 (Cytochrome P450 3A4) was 15.8 µM (inconclusive), the AC50 (Cytochrome P450 2C9) was 10 µM (inconclusive) and the AC50 (Cytochrome P450 2C19) was 39.8 µM (inconclusive). For the same compound, the EC50 [2] was 1.97 µM (active).

For `COc1ccc2[nH]c(/C(C#N)=C\c3ccc(Oc4ccc([N+](=O)[O-])cn4)cc3)nc2c1`, the AC50 (INS1) was 3.64 µM (active).

For `CCOC(=O)c1sc(SC)c2c1CCC/C2=N/OC`, the AC50 (INS1) was > 260 µM (inactive).

In the case of `Cn1c2c(c(=O)n(C)c1=O)C1(C(=O)Nc3ccccc31)C(C#N)=C(N)O2` (stereo unspecified), the AC50 (Cytochrome P450 3A4) is reported as 22.4 µM (inconclusive), the AC50 (Cytochrome P450 1A2) is reported as 25.1 µM (inconclusive) and the AC50 (Cytochrome P450 2D6) is reported as 14.1 µM (inconclusive).

For `N#Cc1c(-c2ccc(F)cc2)cc(C2CC2)nc1SCC(=O)c1cccs1`, the EC50 [2] was > 53 µM (inactive).

With `COc1ccc(Oc2nnc(C)c3ccccc23)cc1` the EC50 (H4) was 5.97 µM (active) and the EC50 [1] was 2.76 µM (active).

For `Cc1cccc(NC(=N)Nc2nc(C)cc(C)n2)c1`, the EC50 [2] was 10.7 µM (active).

With `CC1=NN(C(=O)c2ccncc2)C(=O)[C@@H]1/N=N\c1ccc2ccccc2c1` the AC50 (Cytochrome P450 3A4) was 3.98 µM (inconclusive), the AC50 (Cytochrome P450 2C19) was 3.98 µM (inconclusive) and the AC50 (Cytochrome P450 2D6) was 3.16 µM (inconclusive).

With `Cc1cccc(CNc2nc(-c3cccc(NS(C)(=O)=O)c3)nc3ccccc23)c1` the AC50 (Cytochrome P450 2C9) was 0.501 µM (inconclusive).

With `COc1cccc([C@H]2Oc3ccc(OC)cc3/C(=N\OC[C@@H](O)[C@@H]3O[C@@H]4OC(C)(C)O[C@@H]4[C@H]3O)[C@@H]2O)c1` the AC50 (Cytochrome P450 2D6) was 3.16 µM (inconclusive).

For `COC(=O)C1(CC(C)C)C=C2C(=C(C(C)C)C(=O)C2C)CN1` (stereo unspecified), the AC50 (Cytochrome P450 3A4) was 20 µM (inconclusive), the AC50 (Cytochrome P450 2C19) was 25.1 µM (inconclusive) and the AC50 (Cytochrome P450 1A2) was 15.8 µM (inconclusive). The AC50 (Cytochrome P450 2D6) was 25.1 µM (inconclusive).

In the case of `COc1ccc(-c2cc(-c3c(O)c(OC)c4occc4c3OC)[nH]n2)cc1`, the EC50 [5] is reported as 25.8 µM (active).

With `O=c1c(Oc2ccccc2Br)c(C(F)(F)F)oc2c(CN3CCCC3)c(O)ccc12` the AC50 (Cytochrome P450 2C19) was 39.8 µM (inconclusive), the AC50 (Cytochrome P450 1A2) was 17.8 µM (inconclusive) and the AC50 (Cytochrome P450 2D6) was 17.8 µM (inconclusive).

For `CSc1nnc(-c2cc3c(-c4ccccc4)nn(C)c3s2)n1C`, the AC50 (Cytochrome P450 3A4) was 31.6 µM (inconclusive), the AC50 (Cytochrome P450 2C9) was 3.55 µM (inconclusive) and the AC50 (Cytochrome P450 2C19) was 22.4 µM (inconclusive).

With `COc1ccc(NC(=O)C2(c3ccc(NC(=O)c4ccc(OC(C)=O)cc4)cc3)CCCC2)cc1` the AC50 (Cytochrome P450 2C9) was 1.26 µM (inconclusive).

For `COc1ccc(O[C@H]2C=C[C@@H](c3ccccc3)O[C@H]2COC(=O)CC/C(C)=N\O[C@@H](C)CN2CCCc3nc(C)c(C)cc32)cc1`, the AC50 (Cytochrome P450 2C9) was 3.98 µM (inconclusive).

In the case of `Cc1ccc(S(=O)(=O)N/N=C/c2ccc(OC3CSC3)cc2)cc1`, the AC50 (Cytochrome P450 2C19) is reported as 4.47 µM (inconclusive) and the EC50 [2] is reported as 5.51 µM (active).

In the case of `CC(=O)Nc1ccc(C2=NN(CC#N)C(=O)SC2)cc1`, the AC50 (Cytochrome P450 2C9) is reported as 8.91 µM (inconclusive) and the AC50 (Cytochrome P450 1A2) is reported as 15.8 µM (inconclusive).

In the case of `CC(=O)c1ccc(NC(S)=NCCc2cccc(Cl)c2)cc1`, the EC50 (H4) is reported as > 120 µM (not active) and the EC50 [1] is reported as 2.64 µM (active).

With `Cn1c(=O)c(-c2ccccc2)nc2cnc(OCc3ccccc3)nc21` the AC50 (Cytochrome P450 3A4) was 39.8 µM (inconclusive), the AC50 (Cytochrome P450 2C9) was 20 µM (inconclusive) and the AC50 (Cytochrome P450 2C19) was 39.8 µM (inconclusive).

For `COc1ccc([N+](=O)[O-])cc1NC1C2CC3CC(C2)CC1C3` (stereo unspecified), the AC50 (Cytochrome P450 3A4) was 11.2 µM (inconclusive) and the AC50 (Cytochrome P450 2C9) was 22.4 µM (inconclusive).

With `COc1ccc(N2CCN(C(S)=Nc3cccc(C)c3)CC2)cc1` the AC50 (Cytochrome P450 3A4) was 2.24 µM (inconclusive) and the AC50 (Cytochrome P450 2C9) was 0.00562 µM (inconclusive).

In the case of `Cc1ccc(Nc2nnc(-c3ccc4c(c3)OCO4)o2)c(C)c1`, the AC50 (Cytochrome P450 2C9) is reported as 7.94 µM (inconclusive).

In the case of `CCC(=O)NCCNC(=O)c1c(SC)nsc1SC`, the AC50 (Cytochrome P450 2C9) is reported as 12.6 µM (inconclusive), the AC50 (Cytochrome P450 2C19) is reported as 39.8 µM (inconclusive) and the AC50 (Cytochrome P450 1A2) is reported as 3.16 µM (inconclusive).

For `NC(=O)CC(NC(=O)c1ccc(Br)cc1)c1ccc(NCc2ccc(F)cc2)c([N+](=O)[O-])c1` (stereo unspecified), the AC50 [6] was 3.96 µM (active).

In the case of `CCN(CC)CCOC(=O)c1c(C)n(C)c2ccc(OC)cc12`, the AC50 (Cytochrome P450 2C19) is reported as 39.8 µM (inconclusive) and the AC50 (Cytochrome P450 2D6) is reported as 28.2 µM (inconclusive).

With `O=C(CNS(=O)(=O)c1cccs1)N1CCC2(CC1)OCCO2` the AC50 (Cytochrome P450 2C9) was 39.8 µM (inconclusive).

For `Cc1cccc(NC(=O)C2CCN(S(=O)(=O)c3cccc4nsnc34)CC2)n1`, the AC50 (Cytochrome P450 2C9) was 14.1 µM (inconclusive), the AC50 (Cytochrome P450 1A2) was 0.0794 µM (inconclusive) and the AC50 (Cytochrome P450 2D6) was 14.1 µM (inconclusive).
